Measurements: the NIST ThermoML archive (doi:10.1016/j.jct.2016.02.027)
± gives the expanded uncertainty stated by the source.

How the values were obtained:
[1] = 298.15 K; 101.33 kPa; Liquid; Vibrating tube method
[2] = xn = mol fraction of the nth substance listed; settings: 298.15 K, 101.3 kPa, Liquid, Vibrating tube method

CCCC[N+]1(C)CCCC1.O=S(=O)([N-]S(=O)(=O)C(F)(F)F)C(F)(F)F
mass density [1]: 1394.68 ± 6 kg/m3

CCCC[N+]1(C)CCCC1.O=S(=O)([N-]S(=O)(=O)C(F)(F)F)C(F)(F)F + CCCCCCCC
mass density ([2]; x2 = 0.042): 1384.07 ± 4.5 kg/m3

CCCC[N+]1(C)CCCC1.O=S(=O)([N-]S(=O)(=O)C(F)(F)F)C(F)(F)F + CCCCCCCCCC
mass density ([2]; x2 = 0.023): 1387.66 ± 4.5 kg/m3

CCCC[N+]1(C)CCCC1.O=S(=O)([N-]S(=O)(=O)C(F)(F)F)C(F)(F)F + c1ccccc1
mass density ([2]; x2 = 0.81): 1117.76 ± 4.3 kg/m3
mass density ([2]; x2 = 0.811): 1118.57 ± 4.3 kg/m3
